pIC50: −log10 of the molar value.
Target: T1, γ-secretase (Homo sapiens, UniProt P49768)
T1 construct: uses a HEK293 membrane fraction as a source of γ-secretase; endogenous in cells; host or cells: HEK293 (microsomal membrane fraction, solubilised in 0.25% CHAPSO)
Assay: in vitro assay of γ-secretase activity (HEK293 membrane fraction, recombinant APP substrate, Abeta ELISA)
Assay type: biochemical
Details: γ-secretase inhibition; HEK293 membrane fraction solubilized in 0.25% CHAPSO, recombinant human APP C-terminal 100 amino acids substrate, Abeta detected by ELISA
Excerpt: Description of 1γ-Secretase Assay The activity of test compounds can be evaluated in assays which measure the proteolytic cleavage of suitable substrates by γ-secretase activity. These can be cellular assays where e.g., a substrate of the γ-secretase is fused in its cytoplasmic domain to a transcription factor. Cells are transfected with this fusion gene and a reporter gene, e.g., firefly luciferase, which expression is enhanced by the transcription factor. Cleavage of the fused substrate by γ-secretase will lead to expression of the reporter gene which can be monitored in appropriate assays. The γ-secretase activity can also be determined in cell-free in vitro assays where e.g., a cell lysate containing the γ-secretase complex is incubated with a suitable APP-derived substrate which is cleaved to the Abeta peptides. The amount of produced peptides can be determined with specific ELISA assays. Cell lines of neuronal origin secrete Abeta peptides which can be measured with the specific ELISA assay. Treatment with compounds which inhibit γ-secretase leads to a reduction of secreted Abeta thus providing a measure of inhibition. The in vitro assay of γ-secretase activity uses a HEK293 membrane fraction as a source of γ-secretase and a recombinant APP substrate. Latter consist of the C-terminal 100 amino acids of human APP fused to a 6× Histidin tail for purification which is expressed in E. coli in a regulatable expression vector, e.g. pEt15. This recombinant protein corresponds to the truncated APP fragment which results after […] of the extracellular domain and which constitutes the γ-secretase substrate. The assay principle is described in Li Y M et al, PNAS 97(11), 6138-6143 (2000). Hek293 cells are mechanically disrupted and the microsomal fraction is isolated by differential centrifugation. The membranes are solubilized in detergent (0.25% CHAPSO) and incubated with the APP substrate. The Abeta peptides which are produced by γ-secretase cleavage of the substrate are detected by specific ELISA assays as described (Brockhaus M et al, Neuroreport 9(7), 1481-1486 (1998).

SMILES | pIC50
CCOC(C(=O)NCC(F)(F)C(F)(F)F)C(=O)N[C@@H]1C(=O)N(CCO)c2ccccc2-c2ccccc21 (stereo partly drawn) [Example 17, 2-Ethoxy-N—[(S)-5-(2-hydroxy-ethyl)-6-oxo-6,7-dihydro-5H-dibenzo[b,d]azepin-7-yl]-N′-(2,2,3,3,3-pentafluoro-propyl)-malonamide] | 8.40
C[C@@](F)(C(=O)NCC(F)(F)C(F)(F)F)C(=O)N[C@@H]1C(=O)N(CCOCc2ccccc2)c2ccccc2-c2ccccc21 [Example 22, (R)—N—[(S)-5-(2-Benzyloxy-ethyl)-6-oxo-6,7-dihydro-5H-dibenzo[b,d]azepin-7-yl]-2-fluoro-2-methyl-N′-(2,2,3,3,3-pentafluoro-propyl)-malonamide] | 8.70
C[C@](F)(C(=O)NCC(F)(F)C(F)(F)F)C(=O)N[C@@H]1C(=O)N(CCOCc2ccccc2)c2ccccc2-c2ccccc21 [Example 23, (S)—N—[(S)-5-(2-Benzyloxy-ethyl)-6-oxo-6,7-dihydro-5H-dibenzo[b,d]azepin-7-yl]-2-fluoro-2-methyl-N′-(2,2,3,3,3-pentafluoro-propyl)-malonamide] | 7.80
COCCN1C(=O)[C@@H](NC(=O)CC(=O)NCC(F)(F)C(F)(F)F)c2ccccc2-c2ccccc21 [Example 24, N—[(S)-5-(2-Methoxy-ethyl)-6-oxo-6,7-dihydro-5H-dibenzo[b,d]azepin-7-yl]-N′-(2,2,3,3,3-pentafluoro-propyl)-malonamide] | 7.47
COCCN1C(=O)[C@@H](NC(=O)[C@H](C)OC(=O)NCC(F)(F)C(F)(F)F)c2ccccc2-c2ccccc21 [Example 25, (2,2,3,3,3-Pentafluoro-propyl)-carbamic acid (S)-1-[(S)-5-(2-methoxy-ethyl)-6-oxo-6,7-dihydro-5H-dibenzo[b,d]azepin-7-ylcarbamoyl]-ethyl ester] | 8.22
C[C@@](F)(C(=O)NCC(F)(F)C(F)(F)F)C(=O)N[C@@H]1C(=O)N(CCO)c2ccccc2-c2ccccc21 [Example 26, (R)-2-Fluoro-N—[(S)-5-(2-hydroxy-ethyl)-6-oxo-6,7-dihydro-5H-dibenzo[b,d]azepin-7-yl]-2-methyl-N′-(2,2,3,3,3-pentafluoro-propyl)-malonamide] | 9.00
C[C@](F)(C(=O)NCC(F)(F)C(F)(F)F)C(=O)N[C@@H]1C(=O)N(CCO)c2ccccc2-c2ccccc21 [Example 27, (S)-2-Fluoro-N—[(S)-5-(2-hydroxy-ethyl)-6-oxo-6,7-dihydro-5H-dibenzo[b,d]azepin-7-yl]-2-methyl-N′-(2,2,3,3,3-pentafluoro-propyl)-malonamide] | 8.40
O=C(CC(=O)N[C@@H]1C(=O)N(CCOCc2ccccc2)c2ccccc2-c2ccccc21)NCCC(F)(F)F [Example 28, N—[(S)-5-(2-Benzyloxy-ethyl)-6-oxo-6,7-dihydro-5H-dibenzo[b,d]azepin-7-yl]-N′-(3,3,3-trifluoro-propyl)-malonamide] | 7.17
O=C(CC(=O)N[C@@H]1C(=O)N(CCOCc2ccccc2)c2ccccc2-c2ccccc21)NCCC(F)(F)C(F)(F)F [Example 29, N—[(S)-5-(2-Benzyloxy-ethyl)-6-oxo-6,7-dihydro-5H-dibenzo[b,d]azepin-7-yl]-N′-(3,3,4,4,4-pentafluoro-butyl)-malonamide] | 7.74
O=C(CC(=O)N[C@@H]1C(=O)N(CCO)c2ccccc2-c2ccccc21)NCCC(F)(F)F [Example 30, N—[(S)-5-(2-Hydroxy-ethyl)-6-oxo-6,7-dihydro-5H-dibenzo[b,d]azepin-7-yl]-N′-(3,3,3-trifluoro-propyl)-malonamide] | 7.12
O=C(CC(=O)N[C@@H]1C(=O)N(CCO)c2ccccc2-c2ccccc21)NCCC(F)(F)C(F)(F)F [Example 31, N—[(S)-5-(2-Hydroxy-ethyl)-6-oxo-6,7-dihydro-5H-dibenzo[b,d]azepin-7-yl]-N′-(3,3,4,4,4-pentafluoro-butyl)-malonamide] | 6.70
COCCN1C(=O)[C@@H](NC(=O)[C@@](C)(F)C(=O)NCC(F)(F)C(F)(F)F)c2ccccc2-c2ccccc21 [Example 32, (S)-2-Fluoro-N—[(S)-5-(2-methoxy-ethyl)-6-oxo-6,7-dihydro-5H-dibenzo[b,d]azepin-7-yl]-2-methyl-N′-(2,2,3,3,3-pentafluoro-propyl)-malonamide] | 7.74
COCCN1C(=O)[C@@H](NC(=O)[C@](C)(F)C(=O)NCC(F)(F)C(F)(F)F)c2ccccc2-c2ccccc21 [Example 33, (R)-2-Fluoro-N—[(S)-5-(2-methoxy-ethyl)-6-oxo-6,7-dihydro-5H-dibenzo[b,d]azepin-7-yl]-2-methyl-N′-(2,2,3,3,3-pentafluoro-propyl)-malonamide] | 8.40
COCCN1C(=O)[C@@H](NC(=O)C(C)(O)C(=O)NCC(F)(F)C(F)(F)F)c2ccccc2-c2ccccc21 (stereo partly drawn) [Example 34, 2-Hydroxy-N—[(S)-5-(2-methoxy-ethyl)-6-oxo-6,7-dihydro-5H-dibenzo[b,d]azepin-7-yl]-2-methyl-N′-(2,2,3,3,3-pentafluoro-propyl)-malonamide] | 8.40
C[C@H](OC(=O)NCCC(F)(F)F)C(=O)N[C@@H]1C(=O)N(CCOCc2ccccc2)c2ccccc2-c2ccccc21 [Example 35, (3,3,3-Trifluoro-propyl)-carbamic acid (S)-1-[(S)-5-(2-benzyloxy-ethyl)-6-oxo-6,7-dihydro-5H-dibenzo[b,d]azepin-7-ylcarbamoyl]-ethyl ester] | 7.66
C[C@H](OC(=O)NCCC(F)(F)C(F)(F)F)C(=O)N[C@@H]1C(=O)N(CCOCc2ccccc2)c2ccccc2-c2ccccc21 [Example 36, (3,3,4,4,4-Pentafluoro-butyl)-carbamic acid (S)-1-[(S)-5-(2-benzyloxy-ethyl)-6-oxo-6,7-dihydro-5H-dibenzo[b,d]azepin-7-ylcarbamoyl]-ethyl ester] | 7.89
C[C@H](OC(=O)NCC(F)(F)F)C(=O)N[C@@H]1C(=O)N(CCOCc2ccccc2)c2ccccc2-c2ccccc21 [Example 37, (2,2,2-Trifluoro-ethyl)-carbamic acid (S)-1-[(S)-5-(2-benzyloxy-ethyl)-6-oxo-6,7-dihydro-5H-dibenzo[b,d]azepin-7-ylcarbamoyl]-ethyl ester] | 7.74
C[C@H](OC(=O)NCCC(F)(F)F)C(=O)N[C@@H]1C(=O)N(CCO)c2ccccc2-c2ccccc21 [Example 39, (3,3,3-Trifluoro-propyl)-carbamic acid (S)-1-[(S)-5-(2-hydroxy-ethyl)-6-oxo-6,7-dihydro-5H-dibenzo[b,d]azepin-7-ylcarbamoyl]-ethyl ester] | 7.80
C[C@@](F)(C(=O)NCCC(F)(F)C(F)(F)F)C(=O)N[C@@H]1C(=O)N(CCOCc2ccccc2)c2ccccc2-c2ccccc21 [Example 40, (R)—N—[(S)-5-(2-Benzyloxy-ethyl)-6-oxo-6,7-dihydro-5H-dibenzo[b,d]azepin-7-yl]-2-fluoro-2-methyl-N′-(3,3,4,4,4-pentafluoro-butyl)-malonamide] | 8.30
C[C@H](OC(=O)NCCF)C(=O)N[C@@H]1C(=O)N(CCOCc2ccccc2)c2ccccc2-c2ccccc21 [Example 41, (2-Fluoro-ethyl)-carbamic acid (S)-1-[(S)-5-(2-benzyloxy-ethyl)-6-oxo-6,7-dihydro-5H-dibenzo[b,d]azepin-7-ylcarbamoyl]-ethyl ester] | 6.32
C[C@@](F)(C(=O)NCCC(F)(F)C(F)(F)F)C(=O)N[C@@H]1C(=O)N(CCO)c2ccccc2-c2ccccc21 [Example 42, (R)-2-Fluoro-N—[(S)-5-(2-hydroxy-ethyl)-6-oxo-6,7-dihydro-5H-dibenzo[b,d]azepin-7-yl]-2-methyl-N′-(3,3,4,4,4-pentafluoro-butyl)-malonamide] | 9.00
C[C@](F)(C(=O)NCC(F)(F)F)C(=O)N[C@@H]1C(=O)N(CCOCc2ccccc2)c2ccccc2-c2ccccc21 [Example 43, (S)—N—[(S)-5-(2-Benzyloxy-ethyl)-6-oxo-6,7-dihydro-5H-dibenzo[b,d]azepin-7-yl]-2-fluoro-2-methyl-N′-(2,2,2-trifluoro-ethyl)-malonamide] | 7.89
C[C@](F)(C(=O)NCCC(F)(F)C(F)(F)F)C(=O)N[C@@H]1C(=O)N(CCOCc2ccccc2)c2ccccc2-c2ccccc21 [Example 44, (S)—N—[(S)-5-(2-Benzyloxy-ethyl)-6-oxo-6,7-dihydro-5H-dibenzo[b,d]azepin-7-yl]-2-fluoro-2-methyl-N′-(3,3,4,4,4-pentafluoro-butyl)-malonamide] | 8.05
C[C@H](OC(=O)NCCF)C(=O)N[C@@H]1C(=O)N(CCO)c2ccccc2-c2ccccc21 [Example 47, (2-Fluoro-ethyl)-carbamic acid (S)-1-[(S)-5-(2-hydroxy-ethyl)-6-oxo-6,7-dihydro-5H-dibenzo[b,d]azepin-7-ylcarbamoyl]-ethyl ester] | 6.12

Reference: patent US7425551B2, “Malonamide derivatives” (Hoffmann-La Roche Inc., priority 2006, dated 2008)
